# Measurements taken from patent US20040161419A1, “Placental stem cells and uses thereof” (priority 2002, published 2004).
# How the values were obtained:
# placental stem cells [1] = assay: Differentiation into neural cells; format: cell-based, human
# Experimental: […] Immunohistochemical analysis of the expression of the different genes was conducted with antibodies specific to the human proteins.
# placental stem cells [2] = system: placental stem cells
# Experimental: The cells were cultured for either 7-10 days or until the cultures grew to confluence. The cells were trypsinized and reseeded in 6 well plates. The cells were subjected to different culture conditions, having varying growth factors supplementing the DMEM or MEM based medium. […] Placental stem cells were cultured for an additional 14 days. At the end of 14 days, the cells were evaluated for the expression of human albumin, CYP3A4, A1AT, or C/EBP-alpha.
# placental stem cells [3] = assay: Differentiation into pancreatic cells (RT-PCR); format: cell-based, human; conditions: on Matrigel, 14 days
# Experimental: Placental stem cells were maintained in standard growth media for 7 days and then trypsinized and seeded on cultures previously coated with matrigel (MG), a commercially available form of basement membrane proteins. Cultures were coated with 20% (v/v; matrigel to media) or 100% matrigel with essentially identical results. […] After 10-14 days the cells were lysed and RNA was isolated, and reverse transcriptase-PCR analysis was conducted with PCR primers specific for Pax 6, PDX-1 Nkx2.2, insulin, glucagon and an internal control, beta-actin.
# CYP1A1/2 = assay: EROD assay (ethoxyresorufin-o-deethylase); format: cell-based; conditions: prior exposure 50 uM; human hepatocytes and hepatocytes derived from PSCs
# Experimental: Human hepatocytes were cultured using the conditions of Strom et al. Methods in Enzymology 272:388-401 (1996).
# An EROD assay which measures the conversion of ethoxy-resorufin to hydroxyresorufin was used to detect expression of CYP1A1 or CYP1A2 in human hepatocytes and hepatocytes derived from placental stem cells (Kelley et al. J. Biomolecular Screening 5:249-253 (2000). CYP1A activity in these cells was induced by exposing the hepatocytes to beta-naphthoflavone (50 uM).
# placental stem cells [4] = assay: Differentiation into cardiomyocytes (RT-PCR); format: cell-based, human; conditions: 1 mM, day 14 versus day 0, RT-PCR
# Experimental: Placental stem cells (PSCs) were cultured in the presence of L-Ascorbic acid 2-phosphate (1 mM) for 14 days. Total RNA was extracted on day 0 and day 14 and used for RT-PCR analysis. Cardiomyocyte specific genes primers were designed specifically for cardiac transcription factor GATA-4, atrial myosin light chain type 2 (MLC-2A), ventricular myosin light chain type 2 (MLC-2V), human atrial natriuretic peptide (hANP), and cardiac troponin T (cTnT). The PCR reaction conditions were 45 cycles/57° C. annealing temperature. The PCR products were size fractioned by 2.5% agarose gel electrophoresis.
compound,measurement,setting,value
"CC1=C(/C=C/C(C)=C/C=C/C(C)=C/C(=O)O)C(C)(C)CCC1 [all trans retinoic acid, all-trans retinoic acid]","expression of GFAP, beta-tubulin III and CNP","placental stem cells [1]; immunofluorescence, FIG. 9A",express
same,expression of nestin and glutamic acid decarboxylase (GAD),"placental stem cells [1]; over 7 days of culture, FIG. 9B",increase
"FGF 2: fibroblast growth factor 2, media supplement","liver specific gene expression (albumin, CYP3A4, A1AT, C/EBP-alpha)",placental stem cells [2],did not enhance liver specific gene expression
"hepatocyte growth factor (HGF): hepatocyte growth factor, media supplement","liver specific gene expression (albumin, CYP3A4, A1AT, C/EBP-alpha)",placental stem cells [2],did not enhance liver specific gene expression
NC(=O)c1cccnc1 [nicotinamide],"expression of pancreatic markers (insulin, glucagon, PDX-1, Pax6, Nkx2.2)",placental stem cells [3],express insulin and glucagon
"O=c1cc(-c2ccccc2)oc2ccc3ccccc3c12 [beta-naphthoflavone (BNF), beta-naphthoflavone]",effect on EROD activity,CYP1A1/2,induced
O=C1O[C@H]([C@@H](O)CO)C(O)=C1OP(=O)(O)O [L-Ascorbic acid 2-phosphate],expression of MLC-2A and MLC-2V genes,placental stem cells [4],significantly up-regulated
